IC50 data for 11 molecules are collected here from patent publication US8507483B2, “1H-pyrimidin-2-one derivatives, preparation thereof and pharmaceutical use thereof as inhibitors of AKT (PKB) phosphorylation” (Sanofi, priority 2009, dated 2013).

The test system of assay [1] is AKT protein phosphorylated on serine 473 in PC3 human prostate carcinoma cells. Description: pAKT expression in PC3 cells measured by western blotting (test A). The note with it: PC-3, inhibition of AKT Ser473 phosphorylation, 1 to 2 hours incubation, absolute IC50, mean of two experiments. In kind it is cell-based. The procedure:
(§1) The inhibitory activity of the molecules on AKT phosphorylation is measured either by western blotting using the technique described below, or by the MSD Multi-spot Biomarker detection technique from Meso Scale Discovery also described below.
Study of pAKT expression in PC3 human prostate carcinoma cells measured by western blotting (test A):
This test is based on measuring the expression of the AKT protein phosphorylated on serine 473. The phosphorylation of AKT (pAKT) is measured by western blotting in the PC3 human prostate carcinoma line (ATCC CRL-1435), using an antibody that specifically recognises pAKT-5473.
On day 1, the PC3 cells are seeded into 6-well plates (TPP, #92006) at the concentration of 0.8×10^6 cells/well in 1800 μl of DMEM medium (DMEM Gibco #11960-044) containing 10% of foetal calf serum (SVF Gibco, #10500-056) and 1% glutamine (L-Glu Gibco #25030-024), and incubated at 37° C., 5% CO2, overnight.
On day 2, the cells are incubated in the presence or absence of the test products for 1 to 2 hours at 37° C. in the presence of 5% CO2. The molecules, diluted in dimethyl sulphoxide (DMSO Sigma #D2650), are added from a 10-times concentrated stock solution, the final percentage of DMSO being 0.1%. The molecules are tested either at a single concentration of less than or equal to 10 μM, or at increasing concentrations in a range that can extend from less than 1 nM to 10 μM.
After this incubation, the cells are lysed for the preparation of the proteins. After the culture medium has been drawn off, the cells are rinsed with 1 ml of PBS (DPBS Gibco, #14190-094), recovered by scraping in 200 μl of complete HNTG buffer and transferred into a 96-well plate (Greiner #651201), and lysed for 1 h on ice. The HNTG buffer is composed of the following mixture: 50 mM hepes, 150 mM NaCl, 1% triton, 10% glycerol, with extemporaneous addition of one Mini Protease Inhibitor Cocktail tablet (Roche 1836153) and of one Phosphatase Inhibitor Cocktail tablet (Roche 104906837001) per 10 ml of buffer.
The lysate is centrifuged for 10 min at 6000 rpm. 155 μl of supernatant are recovered. 150 μl are incubated for denaturation for 5 min at 95° C. in the presence of 4× NuPAGE LDS Sample Buffer diluted 4-fold (InVitrogen ref NP0007) and of 10× NuPAGE Sample Reducing Agent diluted 10-fold (InVitrogen ref NP0009). These samples are then frozen at −20° C. 5 μl are assayed by the microBCA technique according to the technical bulletin of the MicroBCA Protein Assay Kit (Pierce #23235).
For protein separation, 20 μg of proteins are loaded on to a NU-PAGE 4-12% Bis Tris Gel 12 well (InVitrogen ref NP0322BOX) and the migration is carried out for 1 h 30 in 20×NU-PAGE MOPS SDS Running Buffer diluted 20-fold (InVitrogen ref NP0001), at 150 volts.
The gel is then transferred onto an Invitrolon PVDF membrane (Invitrogen #LC2007) permeabilised beforehand for a few seconds in ethanol (Ethanol Fischer Scientific #E/0600DF/15).
The transfer is carried out in a Biorad tank at 30 volts overnight or at 60 volts for 3 hours, in the presence of 20× NUPAGE Transfer Buffer diluted 20-fold (InVitrogen ref NP0006).
The membrane is then saturated in saturating solution composed of TBS (10× Tris Buffered Saline, Sigma #T5912, diluted 10-fold), 0.1% Tween 20 (Sigma #P5927) and 3% BSA (Bovine Serum Albumin Fraction V, Sigma #A4503) for 6 h after overnight transfer or else for 1 h after transfer for a period of 3 h.
The primary antibodies are diluted to 1/1000th for the anti-phospho AKT-Ser473 antibody (193H2, rabbit monoclonal, cat#4058 from Cell Signaling Technology) Abcam), in saturating solution composed of […], 0.1% Tween 20 and 3% BSA, and then shaken overnight at 4° C.
Two rinses for 5 min in washing solution composed of TBS and 0.1% Tween 20 are carried out before hybridisation of the secondary antibodies. […]

The subject of assay [2] is AKT protein phosphorylated on serine 473 (P-AKT-S473) in PC3 human prostate carcinoma cells. Description: pAKT expression in PC3 cells measured by MSD Multi-spot Biomarker Detection (Test B). Type of assay: cell-based. The settings on record: PC-3, inhibition of AKT Ser473 phosphorylation, 1 to 2 h incubation, MSD sandwich immunoassay, absolute IC50, mean of two experiments. The procedure:
as §1
Where appropriate, the activity of the products is translated into approximately IC50, obtained from a dose-response curve of various concentrations tested and representing the dose giving 50% of specific inhibition (absolute IC50). Two independent experiments make it possible to calculate the mean of the IC50s. Study of pAKT expression in PC3 human prostate carcinoma cells measured by the MSD Multi-spot Biomarker Detection technique from Meso Scale Discovery (Test B): This test is based on measuring the expression of the AKT protein phosphorylated on serine 473 (P-AKT-S473), in the PC3 human prostate carcinoma line, by means of the technique based on a sandwich immunoassay using the MSD Multi-spot Biomarker Detection kit from Meso Scale Discovery: phospho-Akt (Ser473) whole cell lysate kit (#K151 CAD) or phospho-Akt (Ser473)/Total Akt whole cell lysate kit (#K151OOD).
The primary antibody specific for P-AKT-5473 (Kit #K151 CAD) is coated onto an electrode in each well of the 96-well plates of the MSD kit: after the addition of a protein lysate to each well, the signal is visualised by adding a secondary detection antibody labelled with an electrochemoluminescent compound. The procedure followed is that described in the kit.
On day 1, the PC3 cells are seeded into 96-well plates (TPP, #92096) at the concentration of 35 000 cells/well in 200 μl of DMEM medium (DMEM Gibco #11960-044) containing 10% of foetal calf serum (FCS Gibco, #10500-056) and 1% glutamine (L-Glu Gibco #25030-024), and incubated at 37° C., 5% CO2, overnight.
On day 2, the cells are incubated in the presence or absence of the test products for 1 to 2 h at 37° C. in the presence of 5% of CO2. The molecules, diluted in dimethyl sulphoxide (DMSO Sigma #D2650), are added from a 20-times concentrated stock solution, the final percentage of DMSO being 0.1%. The molecules are tested either at a single concentration of less than or equal to 10 μM, or at increasing concentrations in a range that can extend from less than 1 nM to 10 μM.
After this incubation, the cells are lysed for the preparation of the proteins. For this, after the culture medium has been drawn off, […] of complete Tris Lysis Buffer of the MSD kit containing the protease and phosphatase inhibitor solutions are added to the wells and the cells are lysed for 1 h at 4° C. with shaking At this stage, the plates containing the lysates can be frozen at −20° C. or at −80° C.
The wells of the 96-well plates of the MSD kit are saturated for 1 h at ambient temperature with the blocking solution of the MSD kit. Four washes are carried out with 150 μl of Tris Wash Buffer of the MSD kit. The lysates previously prepared are transferred into the 96-well multi-spot plates of the MSD kit and incubated for 1 h at ambient temperature, with shaking Four washes are carried out with 150 μl of Tris Wash Buffer of the MSD kit. 25 μl of the MSD sulpho-tag detection antibody solution are added to the wells and incubated for 1 h at ambient temperature, with shaking Four washes are carried out with 150 μl of Tris Wash Buffer of the MSD kit. 150 μl of Read Buffer of the MSD kit are added to the wells and the plates are read immediately on the 512400 instrument from Meso Scale Discovery.
The instrument measures a signal for each well. Wells without cells and containing the lysis buffer serve to determine the background noise that will be subtracted from all the measurements (min). The wells containing cells in the absence of product and in the presence of 0.1% DMSO are considered to be the 100% signal (max). The percentage inhibition is calculated for each concentration of test product according to the following formula: (1−((test−min)/(max−min)))×100. […]

Regarding `O=c1cc(N2CCOCC2)nc(Cc2nc3ccc(Br)cc3[nH]2)[nH]1` [Example 3, 2-[(5-bromo-1H-benzimidazol-2-yl)methyl]-6-(morpholin-4-yl)pyrimidin-4(3H)-one], the IC50 in assay [1] was 1.34 µM; in assay [2] it was 0.085 µM.
Consider `O=c1cc(N2CCOCC2)nc(Cc2nc3cc(F)c(F)cc3[nH]2)[nH]1` [Example 5, 2-[(5,6-difluoro-1H-benzimidazol-2-yl)methyl]-6-(morpholin-4-yl)pyrimidin-4(3H)-one], for which half-maximal inhibition in assay [1] (IC50) required 1.01 µM.
For the molecule `O=c1cc(N2CCOCC2)nc(Cc2nc3cc(F)ccc3o2)[nH]1` [Example 7, 2-[(5-fluoro-1,3-benzoxazol-2-yl)methyl]-6-(morpholin-4-yl)pyrimidin-4(3H)-one], the IC50 in assay [1] amounted to 0.903 µM; in assay [2] it was 0.026 µM.
As to `O=c1cc(N2CCOCC2)nc(Cc2nc3ccccc3o2)[nH]1` [Example 2, 2-(1,3-benzoxazol-2-ylmethyl)-6-(morpholin-4-yl)pyrimidin-4(3H)-one], the IC50 in assay [1] is 0.388 µM.
With `O=c1cc(N2CCOCC2)nc(Cc2nc3ccc(F)cc3[nH]2)[nH]1` [Example 1, 2-[(5-fluoro-1H-benzimidazol-2-yl)methyl]-6-(morpholin-4-yl)pyrimidin-4(3H)-one], the results for the concentration for half-maximal inhibition (IC50) in assay [1] and in assay [2] were 0.298 µM and 0.041 µM, respectively.
As to `O=c1cc(N2CCOCC2)nc(Cc2nc3ccc(F)cc3o2)[nH]1` [Example 6, 2-[(6-fluoro-1,3-benzoxazol-2-yl)methyl]-6-(morpholin-4-yl)pyrimidin-4(3H)-one], the IC50 in assay [1] turned out to be 0.38 µM; in assay [2], 0.049 µM.
In turn, `O=c1cc(N2CCOCC2)nc(Cc2nc3ccc4ccccc4c3o2)[nH]1` [Example 20, 6-(morpholin-4-yl)-2-(naphtho[2,1-d][1,3]oxazol-2-ylmethyl)pyrimidin-4(3H)-one] came in with an IC50 in assay [2] of 1 µM.
Turning to `O=c1cc(N2CCOCC2)nc(Cc2nc3ccccc3n2C2CCCCC2)[nH]1` [Example 33, 2-[(1-cyclohexyl-1H-benzimidazol-2-yl)methyl]-6-(morpholin-4-yl)pyrimidin-4(3H)-one], inhibition in assay [2] was half-maximal at 0.142 µM (IC50).
On the same count and under the same terms, in the case of `O=c1cc(N2CCOCC2)nc(Cc2nc3c(Br)cc(F)cc3[nH]2)[nH]1` [Example 35, 2-[(4-bromo-6-fluoro-1H-benzimidazol-2-yl)methyl]-6-(morpholin-4-yl)pyrimidin-4(3H)-one] it was 0.115 µM.
Turning to `Cn1c(Cc2nc(N3CCOCC3)cc(=O)[nH]2)nc2ccccc21` [Example 10, 2-[(1-methyl-1H-benzimidazol-2-yl)methyl]-6-(morpholin-4-yl)pyrimidin-4(3H)-one], the IC50 is 0.713 µM in assay [1] and 0.027 µM in assay [2].
For the molecule `O=c1cc(N2CCOCC2)nc(Cc2nc3cc(Cl)c(Cl)cc3[nH]2)[nH]1` [Example 23, 2-[(5,6-dichloro-1H-benzimidazol-2-yl)methyl]-6-(morpholin-4-yl)pyrimidin-4(3H)-one], 0.193 µM corresponded to half-maximal inhibition in assay [2] (IC50).
